Experimental data published in ChEMBL document CHEMBL3045868, “Synthesis and antibacterial activities of para-alkoxy phenyl--ketoaldehyde derivatives” (Med Chem Res, 2013).
Values after ≈ are worked out from the molar mass of the structure shown.

Experiments:
Format in all cases: functional
[1] = test system: Staphylococcus aureus; assay: Bactericidal activity against methicillin-resistant Staphylococcus aureus after 24 hr
[2] = test system: Staphylococcus aureus; assay: Antibacterial activity against Staphylococcus aureus clinical isolate 5 assessed as growth inhibition after 16 to 18 hr by NCCLS agar dilution method
[3] = test system: Staphylococcus aureus; assay: Antibacterial activity against methicillin-resistant Staphylococcus aureus isolate 3 assessed as growth inhibition after 16 to 18 hr by NCCLS agar dilution method
[4] = test system: Staphylococcus aureus; assay: Bactericidal activity against Staphylococcus aureus clinical isolate 7 after 24 hr; details: isolate 7, 24 h
[5] = test system: Staphylococcus aureus; assay: Bactericidal activity against Staphylococcus aureus clinical isolate after 24 hr
[6] = test system: Staphylococcus aureus; assay: Antibacterial activity against Staphylococcus aureus clinical isolate 8 assessed as growth inhibition after 16 to 18 hr by NCCLS agar dilution method
[7] = test system: Staphylococcus aureus; assay: Bactericidal activity against Staphylococcus aureus clinical isolate 3 after 24 hr; details: isolate 3, 24 h
[8] = test system: Staphylococcus aureus; assay: Bactericidal activity against methicillin-resistant Staphylococcus aureus isolate 3 after 24 hr; details: isolate 3, 24 h
[9] = test system: Staphylococcus aureus; assay: Antibacterial activity against methicillin-resistant Staphylococcus aureus isolate 1 assessed as growth inhibition after 16 to 18 hr by NCCLS agar dilution method
[10] = test system: Staphylococcus aureus; assay: Antibacterial activity against methicillin-resistant Staphylococcus aureus isolate 4 assessed as growth inhibition after 16 to 18 hr by NCCLS agar dilution method
[11] = test system: Staphylococcus aureus; assay: Antibacterial activity against Staphylococcus aureus clinical isolate 2 assessed as growth inhibition after 16 to 18 hr by NCCLS agar dilution method
[12] = test system: Staphylococcus aureus; assay: Bactericidal activity against Staphylococcus aureus clinical isolate 4 after 24 hr; details: isolate 4, 24 h
[13] = test system: Staphylococcus aureus; assay: Antibacterial activity against Staphylococcus aureus clinical isolate 6 assessed as growth inhibition after 16 to 18 hr by NCCLS agar dilution method
[14] = test system: Staphylococcus aureus; assay: Bactericidal activity against methicillin-resistant Staphylococcus aureus isolate 5 after 24 hr; details: isolate 5, 24 h
[15] = test system: Staphylococcus aureus; assay: Antibacterial activity against Staphylococcus aureus clinical isolate 3 assessed as growth inhibition after 16 to 18 hr by NCCLS agar dilution method
[16] = test system: Staphylococcus aureus; assay: Bactericidal activity against Staphylococcus aureus clinical isolate 2 after 24 hr; details: isolate 2, 24 h
[17] = test system: Staphylococcus aureus; assay: Antibacterial activity against Staphylococcus aureus clinical isolate 1 assessed as growth inhibition after 16 to 18 hr by NCCLS agar dilution method
[18] = test system: Staphylococcus aureus; assay: Bactericidal activity against Staphylococcus aureus clinical isolate 5 after 24 hr; details: isolate 5, 24 h
[19] = test system: Staphylococcus aureus; assay: Bactericidal activity against Staphylococcus aureus clinical isolate 6 after 24 hr; details: isolate 6, 24 h
[20] = test system: Staphylococcus aureus; assay: Bactericidal activity against Staphylococcus aureus clinical isolate 9 after 24 hr; details: isolate 9, 24 h
[21] = test system: Staphylococcus aureus; assay: Antibacterial activity against Staphylococcus aureus clinical isolate 4 assessed as growth inhibition after 16 to 18 hr by NCCLS agar dilution method
[22] = test system: Staphylococcus aureus; assay: Antibacterial activity against methicillin-resistant Staphylococcus aureus isolate 5 assessed as growth inhibition after 16 to 18 hr by NCCLS agar dilution method
[23] = test system: Staphylococcus aureus; assay: Bactericidal activity against Staphylococcus aureus clinical isolate 1 after 24 hr; details: isolate 1, 24 h
[24] = test system: Staphylococcus aureus; assay: Antibacterial activity against methicillin-resistant Staphylococcus aureus assessed as growth inhibition after 16 to 18 hr by NCCLS agar dilution method
[25] = test system: Staphylococcus aureus; assay: Antibacterial activity against Staphylococcus aureus ATCC 25923 assessed as growth inhibition after 16 to 18 hr by NCCLS agar dilution method
[26] = test system: Staphylococcus aureus; assay: Bactericidal activity against methicillin-resistant Staphylococcus aureus isolate 4 after 24 hr; details: isolate 4, 24 h
[27] = test system: Staphylococcus aureus; assay: Antibacterial activity against methicillin-resistant Staphylococcus aureus isolate 2 assessed as growth inhibition after 16 to 18 hr by NCCLS agar dilution method
[28] = test system: Staphylococcus aureus; assay: Antibacterial activity against Staphylococcus aureus clinical isolate 10 assessed as growth inhibition after 16 to 18 hr by NCCLS agar dilution method
[29] = test system: Staphylococcus aureus; assay: Antibacterial activity against Staphylococcus aureus clinical isolate assessed as growth inhibition after 16 to 18 hr by NCCLS agar dilution method
[30] = test system: Staphylococcus aureus; assay: Bactericidal activity against Staphylococcus aureus clinical isolate 10 after 24 hr; details: isolate 10, 24 h
[31] = test system: Staphylococcus aureus; assay: Antibacterial activity against Staphylococcus aureus clinical isolate 7 assessed as growth inhibition after 16 to 18 hr by NCCLS agar dilution method
[32] = test system: Staphylococcus aureus; assay: Antibacterial activity against Staphylococcus aureus clinical isolate 9 assessed as growth inhibition after 16 to 18 hr by NCCLS agar dilution method
[33] = test system: Staphylococcus aureus; assay: Bactericidal activity against methicillin-resistant Staphylococcus aureus isolate 1 after 24 hr; details: isolate 1, 24 h
[34] = test system: Staphylococcus aureus; assay: Bactericidal activity against Staphylococcus aureus clinical isolate 8 after 24 hr; details: isolate 8, 24 h
[35] = test system: Staphylococcus aureus; assay: Bactericidal activity against methicillin-resistant Staphylococcus aureus isolate 2 after 24 hr; details: isolate 2, 24 h
[36] = test system: Escherichia coli; assay: Antibacterial activity against Escherichia coli ATCC 25922 assessed as growth inhibition after 16 to 18 hr NCCLS agar dilution method
[37] = test system: Pseudomonas aeruginosa; assay: Antibacterial activity against Pseudomonas aeruginosa ATCC 27853 assessed as growth inhibition after 16 to 18 hr NCCLS agar dilution method

Compound	MBC50 [1] [µg/mL]	MBC90 [1] [µg/mL]	MIC [2] [µg/mL]	MIC [3] [µg/mL]	MBC [4] [µg/mL]	MIC [6] [µg/mL]	MBC [7] [µg/mL]	MBC [8] [µg/mL]	MIC [9] [µg/mL]	MIC [10] [µg/mL]	MIC [11] [µg/mL]	MBC [12] [µg/mL]	MIC [13] [µg/mL]	MBC [14] [µg/mL]	MIC [15] [µg/mL]	MBC [16] [µg/mL]	MIC [17] [µg/mL]	MBC [18] [µg/mL]	MBC [19] [µg/mL]	MBC [20] [µg/mL]	other results
CCCCCCCCCC(=O)CC=O [HOUTTUYNIN]	64 (≈ 323 µM)	128 (≈ 645 µM)	32 (≈ 161 µM)	16 (≈ 80.7 µM)	64 (≈ 323 µM)	64 (≈ 323 µM)	128 (≈ 645 µM)	64 (≈ 323 µM)	16 (≈ 80.7 µM)	16 (≈ 80.7 µM)	64 (≈ 323 µM)	128 (≈ 645 µM)	64 (≈ 323 µM)	64 (≈ 323 µM)	64 (≈ 323 µM)	64 (≈ 323 µM)	64 (≈ 323 µM)	128 (≈ 645 µM)	128 (≈ 645 µM)	256 (≈ 1290 µM)	MBC50 (60.1); MBC90 (60.2) ([5]; read-out: MIC50): 128 µg/mL (≈ 645 µM); MBC50 (60.1); MBC90 (60.2) ([5]; read-out: MIC90): 128 µg/mL (≈ 645 µM); MIC [21]: 64 µg/mL (≈ 323 µM); MIC [22]: 16 µg/mL (≈ 80.7 µM); MBC [23]: 64 µg/mL (≈ 323 µM); MIC50 [24]: 16 µg/mL (≈ 80.7 µM); MIC90 [24]: 16 µg/mL (≈ 80.7 µM); MIC [25]: 32 µg/mL (≈ 161 µM); MBC [26]: 32 µg/mL (≈ 161 µM); MIC [27]: 16 µg/mL (≈ 80.7 µM); MIC [28]: 32 µg/mL (≈ 161 µM); MIC50 [29]: 64 µg/mL (≈ 323 µM); MIC90 [29]: 64 µg/mL (≈ 323 µM); MBC [30]: 128 µg/mL (≈ 645 µM); MIC [31]: 64 µg/mL (≈ 323 µM); MIC [32]: 64 µg/mL (≈ 323 µM); MBC [33]: 32 µg/mL (≈ 161 µM); MBC [34]: 128 µg/mL (≈ 645 µM); MBC [35]: 128 µg/mL (≈ 645 µM)
C[C@H]1COc2c(N3CCN(C)CC3)c(F)cc3c(=O)c(C(=O)O)cn1c23.C[C@H]1COc2c(N3CCN(C)CC3)c(F)cc3c(=O)c(C(=O)O)cn1c23.O [LEVOFLOXACIN]	>16	>16	0.125	16	0.25	0.25	0.5	> 16	8	16	0.5	0.5	0.5	> 16	0.25	0.5	0.25	0.25	0.5	0.5	MIC [21]: 0.25 µg/mL; MIC [22]: > 16 µg/mL; MBC [23]: 0.25 µg/mL; MIC50 [24]: 16 µg/mL; MIC90 [24]: > 16 µg/mL; MIC [25]: 0.25 µg/mL; MBC [26]: > 16 µg/mL; MIC [36]: 0.025 µg/mL; MIC [37]: 0.5 µg/mL; MIC [27]: 8 µg/mL; MIC [28]: 0.5 µg/mL; MIC50 [29]: 0.25 µg/mL; MIC90 [29]: 0.5 µg/mL; MBC [30]: 0.5 µg/mL; MIC [31]: 0.25 µg/mL; MIC [32]: 0.25 µg/mL; MBC [33]: > 16 µg/mL; MBC [34]: 0.25 µg/mL; MBC [35]: > 16 µg/mL
